Laboratory results reported in patent publication US20250388575A1, “HETEROBIFUNCTIONAL COMPOUNDS AND METHODS OF TREATING DISEASE” (Halda Therapeutics OpCo, Inc., priority 2022, published 2025).
Like-named read-outs stand apart in the source and are kept apart here.

Assays:
[1] = tested on: VCaP cells; assay: Cellular growth inhibition assay for VCaP cells, CellTiter-Glo; format: cell-based, human; details: VCaP cells, 72 hours, CellTiter-Glo, read-out: GI50
Outline: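 GI50 values come from four-parameter curve fits of luminescence data normalized to a zero baseline. Compound, in medium with 0.5% DMSO, was added one day after plating and left for 72 h before CellTiter-Glo 2.0 addition.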

[2] = tested on: T-Rex 293 cell line SC3 cells lacking increased expression of androgen receptor protein; assay: Cellular growth inhibition, T-Rex 293 SC3 cells lacking increased androgen receptor expression (no doxycycline), CellTiter-Glo; format: cell-based; details: T-Rex 293 SC3 cells lacking increased androgen receptor expression (not exposed to doxycycline), 72 hours, CellTiter-Glo; read-out: GI50
Outline: (§1)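 SC3, a T-Rex 293 clone with doxycycline-inducible wild-type androgen receptor, was seeded in phenol red-free DMEM with 10% charcoal-dextran FBS, with or without 10 ng/mL doxycycline. Compound added at 24 h (0.5% DMSO) for 72 h at 37° C. CellTiter-Glo 2.0 luminescence; GI50 from four-parameter fit.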

[3] = biological target: BRD4-BD1 (Homo sapiens (Human), UniProt O60885); assay: bromoKdELECT assay for binding affinity to BRD4-BD1; details: 11-point 3-fold dilution
Description: (§2) Compounds were tested using a bromoKdELECT assay. T7 phage strains displaying bromodomains were grown in parallel in 24-well blocks in an E. coli host derived from the BL21 strain. E. coli were grown to log-phase and infected with T7 phage from a frozen stock (multiplicity of infection=0.4) and incubated with shaking at 32° C. until lysis (90-150 minutes). The lysates were centrifuged (5,000×g) and filtered (0.2 μm) to remove cell debris. Streptavidin-coated magnetic beads were treated with biotinylated small molecule or acetylated peptide ligands for 30 minutes at room temperature to generate affinity resins for bromodomain assays. The liganded beads were blocked with excess biotin and washed with blocking buffer (SeaBlock (Pierce), 1% BSA, 0.05% Tween 20, 1 mM DTT) to remove unbound ligand and to reduce nonspecific phage binding. Binding reactions were assembled by combining bromodomains, liganded affinity beads, and test compounds in 1× binding buffer (17% SeaBlock, 0.33×PBS, 0.04% Tween 20, 0.02% BSA, 0.004% Sodium azide, 7.4 mM DTT). Test compounds were prepared as 1000× stocks in 100% DMSO. Kds were determined using an 11-point 3-fold compound dilution series with one DMSO control point. All compounds for Kd measurements are distributed by acoustic transfer (non-contact dispensing) in 100% DMSO. The compounds were then diluted directly into the assays such that the final concentration of DMSO was 0.09%. All reactions performed in polypropylene 384-well plates. Each was a final volume of 0.02 ml. The assay plates were incubated at room temperature with shaking for 1 hour and the affinity beads were washed with wash buffer (1×PBS, 0.05% Tween 20). The beads were then resuspended in elution buffer (1×PBS, 0.05% Tween 20, 2 μM non-biotinylated affinity ligand) and incubated at room temperature with shaking for 30 minutes. The bromodomain concentration in the eluates was measured by qPCR.

[4] = biological target: BRD4-BD2 (Homo sapiens (Human), UniProt O60885); assay: bromoKdELECT assay for binding affinity to BRD4-BD2; details: 11-point 3-fold dilution
Description: as §2

[5] = tested on: T-Rex 293 cell line SC3 cells having increased expression of androgen receptor protein; assay: Cellular growth inhibition, T-Rex 293 SC3 cells with increased androgen receptor expression (doxycycline), CellTiter-Glo; format: cell-based; details: T-Rex 293 SC3 cells with increased androgen receptor expression (exposed to 10 ng/mL doxycycline), 72 hours, CellTiter-Glo; read-out: GI50
Outline: as §1

[6] = tested on: T47D cells; assay: Cellular growth inhibition assay for T47D cells, CellTiter-Glo; format: cell-based, human; details: 72 hours treatment, CellTiter-Glo 2.0
Outline: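 Luminescence from CellTiter-Glo 2.0 after 72 h of compound exposure gives the viability signal. Cells grew in insulin-supplemented (0.2 units/mL) DMEM with 10% FBS and were treated one day after seeding at 0.5% DMSO. GI50 values come from four-parameter nonlinear regression.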

Compound | GI50 ([1]; Homo sapiens) [nM] | Kd [3] [nM] | Kd [4] [nM] | GI50 [1] [nM] | GI50 [6] [nM] | GI50 ([6]; Homo sapiens) [nM] | GI50 [2] [nM] | GI50 [5] [nM]
CCS(=O)(=O)Nc1ccc(Oc2cccc(OCCOCCOCCOCCOCCOC3CCN(c4ccc(C(=O)N[C@H]5CC[C@H](Oc6ccc(C#N)c(Cl)c6)CC5)nn4)CC3)c2)c(-c2cn(C)c(=O)c3[nH]ccc23)c1 [I-3, N-[4-(3-chloro-4-cyano-phenoxy)cyclohexyl]-6-[4-[2-[2-[2-[2-[2-[3-[4-(ethylsulfonylamino)-2-(6-methyl-7-oxo-1H-pyrrolo[2,3-c]pyridin-4-yl)phenoxy]phenoxy]ethoxy]ethoxy]ethoxy]ethoxy]ethoxy]-1-piperidyl]pyridazine-3-carboxamide] | < 500 | < 50 | < 50 |  |  |  | > 3000 | < 500
CCS(=O)(=O)c1ccc(Oc2cccc(OCCCC3CCN(c4ccc(C(=O)N[C@H]5CC[C@H](Oc6ccc(C#N)c(Cl)c6)CC5)nn4)CC3)c2F)c(-c2cn(C)c(=O)c3[nH]ccc23)c1 [I-15] | < 500 | 500 to 2500 | 500 to 2500 |  |  |  | < 500 | < 500
CCS(=O)(=O)Cc1ccc(Oc2cccc(OCCCC3CCN(c4ccc(C(=O)N[C@H]5CC[C@H](Oc6ccc(C#N)c(Cl)c6)CC5)nn4)CC3)c2F)c(-c2cn(C)c(=O)c3[nH]ccc23)c1 [I-20] | < 500 | 500 to 2500 | 500 to 2500 |  |  |  | < 500 | < 500
CCS(=O)(=O)Nc1ccc(Oc2ccc(CCOC3CCN(c4ccc(C(=O)N[C@H]5CC[C@H](Oc6ccc(C#N)c(Cl)c6)CC5)nn4)CC3)cc2)c(-c2cn(C)c(=O)c3[nH]ccc23)c1 [I-35] | < 500 | < 50 | < 50 |  |  |  | < 500 | < 500
CCS(=O)(=O)c1ccc(Oc2cccc(OCCC3CCN(c4ccc(C(=O)N[C@H]5CC[C@H](Oc6ccc(C#N)c(Cl)c6)CC5)nn4)CC3)c2F)c(-c2cn(C)c(=O)c3[nH]ccc23)c1 [I-42] |  | 500 to 2500 | 500 to 2500 | < 500 | < 500 |  | < 500 | < 500
CCS(=O)(=O)c1ccc(Oc2ccc(COC3CCN(c4ccc(C(=O)N[C@H]5CC[C@H](Oc6ccc(C#N)c(Cl)c6)CC5)nn4)CC3)c(F)c2F)c(-c2cn(C)c(=O)c3[nH]ccc23)c1 [I-53] |  | > 2500 | > 2500 | < 500 | < 500 |  | < 500 | < 500
CCS(=O)(=O)c1ccc(Oc2cccc(CCN3CCN(c4ccc(C(=O)N[C@H]5CC[C@H](Oc6ccc(C#N)c(Cl)c6)CC5)nn4)CC3)c2F)c(-c2cn(C)c(=O)c3[nH]ccc23)c1 [I-55] | < 500 | < 50 | < 50 |  |  | < 500 | < 500 | < 500
CCS(=O)(=O)c1ccc(Oc2ccc(CN3CC4(C3)CN(c3ccc(C(=O)N[C@H]5CC[C@H](Oc6ccc(C#N)c(Cl)c6)CC5)nn3)C4)cc2)c(-c2cn(C)c(=O)c3[nH]ccc23)c1 [I-56] | < 500 | < 50 | < 50 |  |  | < 500 | < 500 | < 500
CCS(=O)(=O)c1ccc(Oc2ccc(CN3CC4(CCN(c5ccc(C(=O)N[C@H]6CC[C@H](Oc7ccc(C#N)c(Cl)c7)CC6)nn5)CC4)C3)cc2)c(-c2cn(C)c(=O)c3[nH]ccc23)c1 [I-57] | < 500 | < 50 | < 50 |  |  | < 500 | < 500 | < 500
Cn1cc(-c2cc(C(C)(C)O)ccc2Oc2cc(F)c(CCOC3CCN(c4ccc(C(=O)N[C@H]5CC[C@H](Oc6ccc(C#N)c(Cl)c6)CC5)nn4)CC3)c(F)c2)c2cc[nH]c2c1=O [I-110] | < 500 | > 2500 | > 2500 |  |  | 1500 to 3000 | 500 to 1500 | < 500
CCS(=O)(=O)Cc1ccc(Oc2ccc(CCC3CCN(c4ccc(C(=O)NC5CCC(Oc6ccc(C#N)c(Cl)c6)CC5)nn4)CC3)cc2)c(-c2cn(C)c(=O)c3[nH]ccc23)c1 (centres unmarked) [I-154, N-[4-(3-chloro-4-cyano-phenoxy)cyclohexyl]-6-[4-[2-[4-[4-(ethylsulfonylmethyl)-2-(6-methyl-7-oxo-1H-pyrrolo[2,3-c]pyridin-4-yl)phenoxy]phenyl]ethyl]-1-piperidyl]pyridazine-3-carboxamide] |  | 500 to 2500 | 500 to 2500 | < 500 |  |  | < 500 | < 500

Further lines, with some results ahead:

GI50 ([1]; Homo sapiens) [nM] | Kd [3] [nM] | Kd [4] [nM] | GI50 [1] [nM] | GI50 [6] [nM] | GI50 ([6]; Homo sapiens) [nM] | Compound | GI50 [2] [nM] | GI50 [5] [nM]
< 500 | 50 to 500 | 50 to 500 |  |  |  | CCS(=O)(=O)Cc1ccc(Oc2cccc(CCCOC3CCN(c4ccc(C(=O)N[C@H]5CC[C@H](Oc6ccc(C#N)c(Cl)c6)CC5)nn4)CC3)c2F)c(-c2cn(C)c(=O)c3[nH]ccc23)c1 [I-29] | < 500 | < 500
 | 500 to 2500 | 500 to 2500 | < 500 | < 500 |  | CCS(=O)(=O)Nc1ccc(Oc2ccc(CCC3CCN(c4ccc(C(=O)N[C@H]5CC[C@H](Oc6ccc(C#N)c(Cl)c6)CC5)nn4)CC3)cc2)c(-c2cn(C)c(=O)c3[nH]ccc23)c1 [I-38] | < 500 | < 500
 | 50 to 500 | 50 to 500 | < 500 | < 500 |  | CCS(=O)(=O)c1ccc(Oc2ccc(CCC3CCN(c4ccc(C(=O)N[C@H]5CC[C@H](Oc6ccc(C#N)c(Cl)c6)CC5)nn4)CC3)cc2)c(-c2cn(C)c(=O)c3[nH]ccc23)c1 [I-50] | < 500 | < 500
 | > 2500 | > 2500 | < 500 | < 500 |  | CCS(=O)(=O)c1ccc(Oc2ccc(CCC3CCN(c4ccc(C(=O)N[C@H]5CC[C@H](Oc6ccc(C#N)c(Cl)c6)CC5)nn4)CC3)c(F)c2)c(-c2cn(C)c(=O)c3[nH]ccc23)c1 [I-54] | < 500 | < 500
< 500 | 50 to 500 | 50 to 500 |  |  | < 500 | CCS(=O)(=O)c1ccc(Oc2ccc(N3CC4(CCN(c5ccc(C(=O)NC6CCC(Oc7ccc(C#N)c(Cl)c7)CC6)nn5)CC4)C3)cc2)c(-c2cn(C)c(=O)c3[nH]ccc23)c1 (centres unmarked) [I-90, N-[4-(3-chloro-4-cyano-phenoxy)cyclohexyl]-6-[2-[4-[4-ethylsulfonyl-2-(6-methyl-7-oxo-1H-pyrrolo[2,3-c]pyridin-4-yl)phenoxy]phenyl]-2,7-diazaspiro[3.5]nonan-7-yl]pyridazine-3-carboxamide] | < 500 | < 500
 | > 2500 | > 2500 | < 500 | < 500 |  | Cn1cc(-c2cc(C(C)(C)O)ccc2Oc2ccc(CCC3CCN(c4ccc(C(=O)N[C@H]5CC[C@H](Oc6ccc(C#N)c(Cl)c6)CC5)nn4)CC3)cc2F)c2cc[nH]c2c1=O [I-111] | > 3000 | < 500
< 500 | 50 to 500 | 50 to 500 |  |  | < 500 | CN(c1ccc(Oc2ccc(C(C)(C)O)cc2-c2cn(C)c(=O)c3[nH]ccc23)cc1)C1CCN(c2ccc(C(=O)N[C@H]3CC[C@H](Oc4ccc(C#N)c(Cl)c4)CC3)nn2)CC1 [I-137, N-[4-(3-chloro-4-cyano-phenoxy)cyclohexyl]-6-[4-[4-[4-(1-hydroxy-1-methyl-ethyl)-2-(6-methyl-7-oxo-1H-pyrrolo[2,3-c]pyridin-4-yl)phenoxy]-N-methyl-anilino]-1-piperidyl]pyridazine-3-carboxamide] | > 3000 | < 500
 | 500 to 2500 | 500 to 2500 | 1500 to 3000 |  |  | Cn1cc(-c2cc(NC(=O)CCC3CCN(c4ccc(C(=O)N[C@H]5CC[C@H](Oc6ccc(C#N)c(Cl)c6)CC5)nn4)CC3)ccc2Oc2ccc(F)cc2F)c2cc[nH]c2c1=O [I-213] | 500 to 1500 | < 500
